Assay: xn = mol fraction of the nth substance listed

CCCC[N+](CCCC)(CCCC)CCCC.F[B-](F)(F)F + CC#N
viscosity [mPa·s], 100 kPa
Details	x1 = 0.004121	x1 = 0.008132	x1 = 0.01219	x1 = 0.01614	x1 = 0.02013	x1 = 0.0241	x1 = 0.02789	x1 = 0.03177	x1 = 0.03562	x1 = 0.0394
293.15 K	0.423	0.446	0.472	0.499	0.528	0.559	0.591	0.625	0.661	0.698
298.15 K	0.404	0.426	0.45	0.475	0.502	0.532	0.561	0.594	0.628	0.663
303.15 K	0.385	0.406	0.429	0.453	0.48	0.507	0.536	0.567	0.599	0.633
308.15 K	0.369	0.389	0.411	0.433	0.458	0.484	0.511	0.54	0.57	0.602
313.15 K	0.354	0.373	0.393	0.414	0.437	0.462	0.487	0.514	0.543	0.572
318.15 K	0.34	0.358	0.377	0.397	0.418	0.441	0.464	0.489	0.516	0.544
323.15 K	0.327	0.344	0.362	0.38	0.4	0.422	0.443	0.467	0.491	0.517

COCCOCCOC + CCOC(C)=O
viscosity [mPa·s], 101.33 kPa
Details	x1 = 0.1016	x1 = 0.2005	x1 = 0.3016	x1 = 0.4007	x1 = 0.4999	x1 = 0.6005	x1 = 0.6994	x1 = 0.8013	x1 = 0.8999
298.15 K	0.477	0.527	0.579	0.633	0.69	0.748	0.815	0.867	0.92
303.15 K	0.451	0.497	0.546	0.594	0.645	0.698	0.75	0.807	0.854
308.15 K	0.428	0.469	0.513	0.558	0.604	0.653	0.706	0.748	0.794
313.15 K	0.406	0.445	0.485	0.526	0.569	0.612	0.659	0.7	0.74
318.15 K	0.385	0.421	0.459	0.496	0.535	0.575	0.616	0.653	0.689

CNc1ccccc1 + O=[N+]([O-])c1ccccc1
Details	viscosity [mPa·s]
303.15 K, 101.3 kPa, x1 = 0.5	1.52

COCCOCCOC + CCCCCCCCCO
101 kPa
Details	viscosity [mPa·s]
293.15 K, x1 = 0.03749	9.714
293.15 K, x1 = 0.09901	7.617
293.15 K, x1 = 0.1933	5.424
293.15 K, x1 = 0.2971	3.978
293.15 K, x1 = 0.4043	3.002
293.15 K, x1 = 0.4948	2.43
293.15 K, x1 = 0.597	1.978
293.15 K, x1 = 0.6959	1.641
293.15 K, x1 = 0.822	1.36
293.15 K, x1 = 0.9135	1.201
293.15 K, x1 = 0.9364	1.177
303.15 K, x1 = 0.03786	6.826
303.15 K, x1 = 0.1002	5.439
303.15 K, x1 = 0.1822	4.165
303.15 K, x1 = 0.2967	3.028
303.15 K, x1 = 0.4005	2.353
303.15 K, x1 = 0.5022	1.911
303.15 K, x1 = 0.5943	1.603
303.15 K, x1 = 0.7009	1.347
303.15 K, x1 = 0.7989	1.167
303.15 K, x1 = 0.894	1.038
303.15 K, x1 = 0.9511	0.975
313.15 K, x1 = 0.03928	4.899
313.15 K, x1 = 0.1017	4.015
313.15 K, x1 = 0.198	3.05
313.15 K, x1 = 0.304	2.349
313.15 K, x1 = 0.3952	1.91
313.15 K, x1 = 0.5025	1.559
313.15 K, x1 = 0.5982	1.312
313.15 K, x1 = 0.6977	1.134
313.15 K, x1 = 0.7914	1.001
313.15 K, x1 = 0.8971	0.884
313.15 K, x1 = 0.9456	0.842

NCCC(=O)N[C@@H](Cc1c[nH]cn1)C(=O)O + O
viscosity [mPa·s], 100 kPa
Details	x1 = 0.000358	x1 = 0.00054	x1 = 0.000713	x1 = 0.00108	x1 = 0.00126	x1 = 0.00143	x1 = 0.00162
293.15 K	1.024	1.028	1.03	1.046	1.053	1.058	1.06
298.15 K	0.908	0.909	0.915	0.928	0.933	0.938	0.938
303.15 K	0.813	0.814	0.818	0.831	0.835	0.839	0.84
308.15 K	0.732	0.733	0.738	0.747	0.752	0.756	0.756
313.15 K	0.663	0.664	0.669	0.676	0.681	0.683	0.685

ClC(Cl)C(Cl)Cl + C1CCOC1
303.15 K, 101 kPa
Details	viscosity [mPa·s]
x2 = 0.0912	1.403
x2 = 0.1846	1.347
x2 = 0.2753	1.283
x2 = 0.4617	1.108
x2 = 0.5426	1.015
x2 = 0.6763	0.8466
x2 = 0.7791	0.7155
x2 = 0.8994	0.5718
x2 = 0.9513	0.515

COCCOCCOC + CCCCOC(C)=O
viscosity [mPa·s], 101.33 kPa
Details	x1 = 0.0863	x1 = 0.1754	x1 = 0.2733	x1 = 0.3672	x1 = 0.4639	x1 = 0.5609	x1 = 0.6688	x1 = 0.8022	x1 = 0.8835
298.15 K	0.706	0.734	0.764	0.791	0.822	0.852	0.884	0.924	0.948
303.15 K	0.659	0.684	0.712	0.736	0.764	0.791	0.82	0.856	0.878
308.15 K	0.616	0.639	0.664	0.686	0.714	0.737	0.768	0.796	0.816
313.15 K	0.578	0.599	0.622	0.641	0.665	0.69	0.712	0.742	0.759
318.15 K	0.542	0.562	0.583	0.601	0.622	0.642	0.665	0.692	0.709

CCCCCCn1cc[n+](C)c1.F[B-](F)(F)F + CC(C)CO
101 kPa
Details	viscosity [mPa·s]
293.15 K, x1 = 0.5606	49.75
303.15 K, x1 = 0.8327	84.55
308.15 K, x1 = 0.1004	4.975

CCCCCCn1cc[n+](C)c1.F[B-](F)(F)F + CCCCCO
101.33 kPa, x1 = 0.135
Details	viscosity [mPa·s]
315 K	5.305
315.75 K	4.745
